Results on 3 molecules are retold here after US20100317001A1, “METHOD OF USING TUMOUR RNA INTEGRITY TO MEASURE RESPONSE TO CHEMOTHERAPY IN CANCER PATIENTS” (LAURENTIAN UNIVERSITY, priority 2007, published 2010).

The structures appear in SMILES notation.

The subject of data set [1] is breast cancer. Particulars: after anthracycline-based chemotherapy; cited from earlier work.
The conditions of data set [2]: dose level 6, epirubicin plus docetaxel every 3 weeks (Schedule A) with pegfilgrastim support.
Method: Patients were from a national clinical trial hosted by the National Cancer Institute of Canada Clinical Trials Group (referred to as group “MA.22”) and were treated with increasing dose levels of both epirubicin and docetaxel, with pegfilgrastim support to reduce neutropenia associated with this therapy.

`CC(=O)O[C@H]1C(=O)[C@@]2(C)[C@H]([C@H](OC(=O)c3ccccc3)[C@]3(O)C[C@H](OC(=O)[C@H](O)[C@@H](NC(=O)c4ccccc4)c4ccccc4)C(C)=C1C3(C)C)[C@]1(OC(C)=O)CO[C@@H]1C[C@@H]2O` [paclitaxel]: in data set [1], the “breast cancer patients that respond” value is 33%. As for `COc1cccc2c1C(=O)c1c(O)c3c(c(O)c1C2=O)C[C@@](O)(C(=O)CO)C[C@@H]3O[C@H]1C[C@H](N)[C@@H](O)[C@H](C)O1` [epirubicin], in data set [2], the maximum tolerated dose was 105 mg/m^2. For the molecule `CC(=O)O[C@@]12CO[C@@H]1C[C@H](O)[C@@]1(C)C(=O)[C@H](O)C3=C(C)[C@@H](OC(=O)[C@H](O)[C@@H](NC(=O)OC(C)(C)C)c4ccccc4)C[C@@](O)([C@@H](OC(=O)c4ccccc4)[C@H]21)C3(C)C` [docetaxel], the maximum tolerated dose in data set [2] was 75 mg/m^2. In data set [1], the “breast cancer patients that respond” value is 35.4%.
